# What was measured:
# Format in all cases: cell-based, human
# UKE-1 and THP-1 cells = experiment: ELISPOT of JAK201-specific T cells stimulated with cancer cell lines; conditions: 100 U/ml IFN-γ 2 days before assaying
# Text: (§1) Next, we examined the capacity of JAK201-specific T cells to recognize and kill cancer cells harboring the JAK2V617F mutation. UKE-1, SET-2 and THP-1 are acute myeloid leukemia cancer cell lines that are HLA-A2-positive. THP-1 cells are JAK2 wt, whereas UKE-1 cells are homozygous and SET-2 are heterozygous for the JAK2V617F mutation. We first examined JAK201-specific T-cells reaction towards the UKE-1 cancer cell line. […] IFN-γ is known to induce the immunoproteasome and to upregulate HLA class I on the cell surface overall enhancing the antigen presentation by the target cell.
# Finally to confirm the recognition of cells expressing the JAK2V617F mutation, we transfected JAK2 wt THP-1 cells with mRNA encoding the JAK2V617F mutation using neural growth factor receptor (NGFR) encoding mRNA as control and used these cells as target cells in cytokine release and Granzyme B assays. […] More than 50% of patients with Philadelphia chromosomenegative chronic MPN harbor the JAK2V617F mutation. This acquired somatic mutation is found exclusively in myeloid malignancies, rendering it a cancer-specific antigen. JAK2V617F is consequently an attractive target for cancer immune therapy.
# [1] = test system: UKE-1, SET-2 and THP-1 cells; experiment: Standard Cr^51 cytotoxicity assay with JAK201-specific T cells and cancer cell lines
# Text: as §1
# Then we examined the importance of the intracellular expression of the JAK2V617F mutation for the recognition of target cells by JAK201-specific T cells. Thus to silence the JAK2V617F mutation, we transfected UKE-1 cells with JAK2V617F siRNA and used the transfected cells as target cells, and compared the recognition with mock transfected UKE-1 cells as previously described. Silencer siRNA duplex for targeted silencing of JAK2V617F with 3′-end overhang dT bases in the antisense strand (sense sequence 5′-[…]-3′ (SEQ ID NO: 21), antisense sequence 5′-[…]-3′ (SEQ ID NO: 22) for duplex 1; and sense sequence 5′-[…]-3′ (SEQ ID NO: 23), antisense sequence 5′-[…]-3′ (SEQ ID NO: 24) for duplex 2) were obtained from Invitrogen (Invitrogen, Paisley, UK). […]
# autologous CALRmut cells = experiment: Intracellular cytokine staining of CALRLong1-specific T cells stimulated with autologous target cells; conditions: IFN-γ 300 U/ml for 24 h
# Protocol: As target cells, we used autologous CD14^+ monocytes and B-cells (BCL). As described above, CD14^+ monocytes were isolated using the MACS CD14 MicroBead kit. An autologous B-cell line was generated using EBV transfection of donor BCL at the Health Protection Agency Culture Collections, Salisbury, UK.
# Frozen T-cells were thawed one day prior to assaying, and in experiments examining CD107a expression, a CD107a-PE antibody was added to cells directly after addition of peptide or target cells. After one hour of stimulation, protein-transport inhibitor Brefeldin A (BD Biosciences, San Jose, Calif., USA) was added to the cells which were then stimulated for four h. Cells were stained with CD3-APC-H7, CD4-FITC, CD8-PerCP, IFN-γ-APC, TNF-α-BV421 and Fixable Viability Stain 510 (BD Biosciences, San Jose, Calif., USA), permeabilized and washed with Permeabilization Reagent/Diluent and fixation-permeabilization buffer (AH Diagnostics, Aarhus, Denmark). Cells were acquired with a FACS Canto II (BD Biosciences) and analyzed using FACSDiva software. All effector cell stimulations were run in triplicate wells if not otherwise specified.
# Autologous CD14^+ monocytes were cultured with CellGro, GM-CSF (1000 U/ml) and IL-4 (250 U/mL) and transfected with either CALR siRNA or negative-control siRNA (Invitrogen) the next day, using electroporation parameters as described previously (Met et al., 2011). In brief, monocytes were washed twice, suspended in Opti-MEM medium (Invitrogen) and adjusted to a final cell density of 10^7 cells/ml. The cell suspension (200 μl) was preincubated for 5 min on ice and subsequently, together with 5 μl of CALR siRNA or 10 μl of negative control siRNA transferred to a 2-mm gap electroporation and pulsed using a BTX 830 square-wave electroporator (Harvard Apparatus, Holliston Mass., USA). Electroporation settings were adjusted to a single pulse, 250 V, 2 ms. […]
# As target cells, we used CD14^+ monocytes with CALRmut allelic burden of 71% and autologous EBV-transformed immortalized B-cells with a CALRmut allelic burden of 0% determined by PCR analysis. […]
substance,measurement,setting,value
IFN-γ: cytokine used to pretreat target cells to enhance antigen presentation,effect of pretreatment of UKE-1 cells on IFN-γ release from the T cells,UKE-1 and THP-1 cells,even greater release
same,lysis of SET-2 cells after stimulation,[1]; IFN-γ stimulation,likewise lysed
same,effect of treatment of UKE-1 cells on lysis,[1]; IFN-γ treatment,augmented
same,"effect of target cell stimulation on T-cell activation, B-cells",autologous CALRmut cells,no change in activation
same,"effect of target cell stimulation on T-cell activation, CALRmut monocytes",autologous CALRmut cells,significantly enhanced
